Data reported in patent publication US20090105124A1, “HETEROCYCLIC MODULATORS OF TGR5” (Kalypsys, Inc., priority 2007, published 2009).

Biological target: T1, human TGR5 (Homo sapiens, UniProt Q8TDU6)
T1 construct: expressed in transfected cells
T1 sequence (Q8TDU6 1-330): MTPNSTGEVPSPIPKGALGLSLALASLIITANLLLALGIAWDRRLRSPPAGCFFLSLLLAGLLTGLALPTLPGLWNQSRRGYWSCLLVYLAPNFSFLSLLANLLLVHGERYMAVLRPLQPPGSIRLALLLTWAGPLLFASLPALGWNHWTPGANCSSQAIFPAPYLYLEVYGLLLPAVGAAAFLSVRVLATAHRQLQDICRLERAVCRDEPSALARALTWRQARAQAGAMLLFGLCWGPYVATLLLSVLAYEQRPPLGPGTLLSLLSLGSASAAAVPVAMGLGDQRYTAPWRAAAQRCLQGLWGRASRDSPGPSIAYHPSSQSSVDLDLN
Test: cAMP production assay in HEK293 cells stably expressing TGR5 (LANCE cAMP, TR-FRET)
Format: cell-based
Settings: stimulated with test compounds for 30 minutes, 1 mM IBMX, read-out: cAMP Production in 293-TGR5 Cells
Experimental: HEK293 cells stably expressing TGR5 (HEK293-TGR5) were established by stably transfecting HEK-293 cells with an expression vector (pcDNA 3.1, Invetrogen) inserted with human TGR5 cDNA using Fugene6 (Roche, Indianapolis, Ind.) according to conventional methods. Cells were grown in DMEM (invitrogen, Carlsbad, Calif.) supplemented with 10% FBS, 1% penicillin/streptomycin under geneticin selection. The presence of TGR5 transcripts in these cells was confirmed using branched DNA (bDNA, Genospectra, Inc., Fremont Calif.) following the manufacturer's protocol and using specific probes for human TGR5. cAMP production assay was performed in high throughput 1536 well format using LANCE cAMP detection kit (Perkin Elmer Inc., Boston, Mass.) according to the manufacturer's protocol. Briefly, HEK293-TGR5 cells were harvested using non-enzymatic cell dissociation buffer (Invitrogen, Carlsbad, Calif.) and suspended in DMEM supplemented with 0.1% FBS at a density of 800,000 cells/ml. Alexa antibody was added to the cell suspension, and 4 ul of the mixture was dispensed in white opaque tissue culture treated Greiner 1536 well plates (USA Scientific, Inc., Ocala, Fla.). After an overnight incubation at 37 C in an atmosphere of 10% CO2 and 95% humidity, 1 ul of 5 mM IBMX (Sigma, St. Louis, Mo.) solution in DMEM was dispensed for a final concentration of 1 mM. Cells were then stimulated with test compounds for 30 minutes, after which time 5 ul of detection reagent was added and incubated for 1-7 hrs at room temperature. TR-FRET signal was detected using the Viewlux (Perkin Elmer Inc., Boston Mass.). EC50 values were determined using Graph Pad Prizm analysis (GraphPad Software, Inc). The EC50 values for a wide range of bile acids generated from this assay were in agreement with the values published in the scientific literature. […] The symbol (+) denotes an EC50 value of ≦10 μM while the symbol (−) denotes an EC50 value of >10 μM (see Table 1).

Row | EC50 | Structure (SMILES)
1 | ≤ 10 µM | O=c1c2sccc2nc(-c2ccc(F)cc2)n1NCc1ccc(Cl)cc1 [Example 37, 3-{[(4-Chlorophenyl)methyl]amino}-2-(4-fluorophenyl)-3H,4H-thieno[3,2-d]pyrimidin-4-one]
2 | ≤ 10 µM | Cn1cnc2nc(-c3ccc(F)cc3)n(NCc3ccc(Br)cc3)c(=O)c21 [Example 38, 1-{[(4-Bromophenyl)methyl]amino}-2-(4-fluorophenyl)-7-methyl-6,7-dihydro-1H-purin-6-one]
3 | ≤ 10 µM | Cn1ncc2nc(-c3ccc(F)cc3)n(NCc3ccc(Br)cc3)c(=O)c21 [Example 40, 6-{[(4-Bromophenyl)methyl]amino}-5-(4-fluorophenyl)-1-methyl-1H,6H,7H-pyrazolo[4,3-d]pyrimidin-7-one]
4 | > 10 µM | Cn1ncc2nc(-c3ccc(F)cc3)n(NCc3ccc(F)c(F)c3)c(=O)c21 [Example 42, 6-{[(3,4-Difluorophenyl)methyl]amino}-5-(4-fluorophenyl)-1-methyl-1H,6H,7H-pyrazolo[4,3-d]pyrimidin-7-one]
5 | ≤ 10 µM | O=c1c2nccnc2nc(-c2ccc(F)cc2)n1NCc1ccc(Cl)cc1 [Example 43, 3-{[(4-Chlorophenyl)methyl]amino}-2-(4-fluorophenyl)-3,4-dihydropteridin-4-one]
6 | ≤ 10 µM | O=c1c2nccnc2nc(-c2ccc(F)cc2)n1NCc1ccc(Cl)c(F)c1 [Example 45, 3-{[(4-Chloro-3-fluorophenyl)methyl]amino}-2-(4-fluorophenyl)-3,4-dihydropteridin-4-one]
7 | ≤ 10 µM | O=c1c2nccnc2nc(-c2ccc(F)cc2)n1NCc1ccc(Cl)cc1F [Example 46, 3-{[(4-Chloro-2-fluorophenyl)methyl]amino}-2-(4-fluorophenyl)-3,4-dihydropteridin-4-one]
8 | > 10 µM | O=c1c2c(nc(-c3ccc(F)cc3)n1NCc1ccc(Br)cc1)CNCC2 [Example 51, 3-{[(4-Bromophenyl)methyl]amino}-2-(4-fluorophenyl)-3H,4H,5H,6H,7H,8H-pyrido[3,4-d]pyrimidin-4-one]

The remaining lines, values behind:

Row | Structure (SMILES) | EC50
9 | O=c1c2sccc2nc(-c2ccc(F)cc2)n1NCc1ccc(Br)cc1 [Example 35, 3-{[(4-Bromophenyl)methyl]amino}-2-(4-fluorophenyl)-3H,4H-thieno[3,2-d]pyrimidin-4-one] | ≤ 10 µM
10 | O=c1c2sccc2nc(-c2ccc(F)cc2)n1NCc1ccc(Cl)c(Cl)c1 [Example 36, 3-{[(3,4-Dichlorophenyl)methyl]amino}-2-(4-fluorophenyl)-3H,4H-thieno[3,2-d]pyrimidin-4-one] | ≤ 10 µM
11 | Cn1cnc2nc(-c3ccc(F)cc3)n(NCc3ccc(Cl)cc3)c(=O)c21 [Example 39, 1-{[(4-Chlorophenyl)methyl]amino}-2-(4-fluorophenyl)-7-methyl-6,7-dihydro-1H-purin-6-one] | ≤ 10 µM
12 | Cn1ncc2nc(-c3ccc(F)cc3)n(NCc3ccc(Cl)cc3)c(=O)c21 [Example 41, 6-{[(4-Chlorophenyl)methyl]amino}-5-(4-fluorophenyl)-1-methyl-1H,6H,7H-pyrazolo[4,3-d]pyrimidin-7-one] | ≤ 10 µM
13 | N#Cc1ccc(CNn2c(-c3ccc(F)cc3)nc3nccnc3c2=O)cc1 [Example 44, 4-({[2-(4-Fluorophenyl)-4-oxo-3,4-dihydropteridin-3-yl]amino}methyl)benzonitrile] | ≤ 10 µM
14 | Cc1cncc(-c2nc3nccnc3c(=O)n2NCc2ccc(Cl)cc2)c1 [Example 47, 3-{[(4-Chlorophenyl)methyl]amino}-2-(5-methylpyridin-3-yl)-3,4-dihydropteridin-4-one] | ≤ 10 µM
15 | Cc1cncc(-c2nc3nccnc3c(=O)n2NCc2ccc(C#N)cc2)c1 [Example 48, 4-({[2-(5-Methylpyridin-3-yl)-4-oxo-3,4-dihydropteridin-3-yl]amino}methyl)benzonitrile] | ≤ 10 µM
16 | O=c1c2nccnc2nc(-c2cncc(Cl)c2)n1NCc1ccc(Cl)cc1 [Example 49, 3-{[(4-Chlorophenyl)methyl]amino}-2-(5-chloropyridin-3-yl)-3,4-dihydropteridin-4-one] | ≤ 10 µM
17 | O=c1c2nccnc2nc(-c2ccc(F)cc2)n1/N=C/c1ccc(Br)cc1 [Example 50, 3-[(E)-[(4-Bromophenyl)methylidene]amino]-2-(4-fluorophenyl)-3,4-dihydropteridin-4-one] | > 10 µM
